# In patent US20210045385A1, “PYRIDAZINONE-SUBSTITUTED KETOXIMES AS HERBICIDES” (FMC Corporation, priority 2018, published 2021):
# What was measured:
# Assay type in all cases: in vivo
# [1] = test system: Italian ryegrass (Lolium multiflorum); assay: Test A preemergence, visual plant response rating; settings: for Ryegrass, Italian plant response rating: 125 g ai/ha, preemergence, 0 to 100 scale, 0 no effect, 100 complete control; for Ryegrass, Italian plant response rating (0 to 100 scale): 500 g ai/ha Preemergence, approx. 10 days
# Procedure, shortened: (§1)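 Ratings 0–100 (100 = complete control), visual, vs untreated controls at ~10 days. Application pre- or postemergence; solvent mixture with surfactant; loam/sand medium.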
# [2] = test system: barnyardgrass (Echinochloa crus-galli); assay: Test A preemergence, visual plant response rating; settings: for Barnyardgrass plant response rating: 125 g ai/ha, preemergence, 0 to 100 scale, 0 no effect, 100 complete control; for Barnyardgrass plant response rating (0 to 100 scale): 500 g ai/ha Preemergence, approx. 10 days
# Procedure, shortened: as §1
# [3] = test system: foxtail, giant (giant foxtail, Setaria faberii); assay: Test A preemergence, visual plant response rating; settings: for Foxtail, Giant plant response rating: 125 g ai/ha, preemergence, 0 to 100 scale, 0 no effect, 100 complete control; for Foxtail, Giant plant response rating (0 to 100 scale): 500 g ai/ha Preemergence, approx. 10 days
# Procedure, shortened: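 Formulated in a non-phytotoxic solvent mixture including surfactant, each test chemical was sprayed onto the soil surface after sowing, or onto seedlings 2 to 10 cm high. Roughly 10 days later, plants were compared with untreated controls and rated for injury from 0 (no effect) to 100 (complete control).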
# kochia (Kochia scoparia) [4] = assay: Test A preemergence, visual plant response rating; settings: for Kochia plant response rating: 125 g ai/ha, preemergence, 0 to 100 scale, 0 no effect, 100 complete control; for Kochia plant response rating (0 to 100 scale): 500 g ai/ha Preemergence, approx. 10 days
# Procedure, shortened: as §1
# [5] = test system: pigweed (Amaranthus retroflexus); assay: Test A preemergence, visual plant response rating; settings: for Pigweed plant response rating: 125 g ai/ha, preemergence, 0 to 100 scale, 0 no effect, 100 complete control; for Pigweed plant response rating (0 to 100 scale): 500 g ai/ha Preemergence, approx. 10 days
# Procedure, shortened: as §1
# [6] = test system: ragweed (common ragweed, Ambrosia elatior); assay: Test A preemergence, visual plant response rating; settings: for Ragweed plant response rating: 125 g ai/ha, preemergence, 0 to 100 scale, 0 no effect, 100 complete control; for Ragweed plant response rating (0 to 100 scale): 500 g ai/ha Preemergence, approx. 10 days
# Procedure, shortened: as §1
# [7] = test system: Italian ryegrass (Lolium multiflorum); assay: Test A postemergence, visual plant response rating; settings: for Ryegrass, Italian plant response rating: 125 g ai/ha, 0 to 100 scale (0 no effect, 100 complete control)
# Procedure, shortened: as §1
# [8] = test system: barnyardgrass (Echinochloa crus-galli); assay: Test A postemergence, visual plant response rating; settings: for Barnyardgrass plant response rating (0 to 100 scale): 500 g ai/ha, postemergence, 0 is no effect, 100 is complete control; for Barnyardgrass plant response rating: Postemergence, 125 g ai/ha, 0 to 100 scale (0 no effect, 100 complete control)
# Procedure, shortened: as §1
# [9] = test system: blackgrass (Alopecurus myosuroides); assay: Test A postemergence, visual plant response rating; settings: for Blackgrass plant response rating (0 to 100 scale): 500 g ai/ha, postemergence, 0 is no effect, 100 is complete control; for Blackgrass plant response rating: Postemergence, 125 g ai/ha, 0 to 100 scale (0 no effect, 100 complete control)
# Procedure, shortened: as §1
# corn (Zea mays) = assay: Test A postemergence, visual plant response rating; settings: for Corn plant response rating (0 to 100 scale): 500 g ai/ha, postemergence, 0 is no effect, 100 is complete control; for Corn plant response rating: Postemergence, 125 g ai/ha, 0 to 100 scale (0 no effect, 100 complete control)
# Procedure, shortened: as §1
# [10] = test system: foxtail, giant (giant foxtail, Setaria faberii); assay: Test A postemergence, visual plant response rating; settings: for Foxtail, Giant plant response rating (0 to 100 scale): 500 g ai/ha, postemergence, 0 is no effect, 100 is complete control; for Foxtail, Giant plant response rating: Postemergence, 125 g ai/ha, 0 to 100 scale (0 no effect, 100 complete control)
# Procedure, shortened: as §1
# [11] = test system: galium (catchweed bedstraw, Galium aparine); assay: Test A postemergence, visual plant response rating; settings: for Galium plant response rating (0 to 100 scale): 500 g ai/ha, postemergence, 0 is no effect, 100 is complete control; for Galium plant response rating: Postemergence, 125 g ai/ha, 0 to 100 scale (0 no effect, 100 complete control)
# Procedure, shortened: as §1
# kochia (Kochia scoparia) [12] = assay: Test A postemergence, visual plant response rating; settings: for Kochia plant response rating (0 to 100 scale): 500 g ai/ha, postemergence, 0 is no effect, 100 is complete control; for Kochia plant response rating: Postemergence, 125 g ai/ha, 0 to 100 scale (0 no effect, 100 complete control)
# Procedure, shortened: as §1
# [13] = test system: pigweed (Amaranthus retroflexus); assay: Test A postemergence, visual plant response rating; settings: for Pigweed plant response rating (0 to 100 scale): 500 g ai/ha, postemergence, 0 is no effect, 100 is complete control; for Pigweed plant response rating: Postemergence, 125 g ai/ha, 0 to 100 scale (0 no effect, 100 complete control)
# Procedure, shortened: as §1
# [14] = test system: ragweed (common ragweed, Ambrosia elatior); assay: Test A postemergence, visual plant response rating; settings: for Ragweed plant response rating (0 to 100 scale): 500 g ai/ha, postemergence, 0 is no effect, 100 is complete control; for Ragweed plant response rating: Postemergence, 125 g ai/ha, 0 to 100 scale (0 no effect, 100 complete control)
# Procedure, shortened: as §1
# [15] = test system: wheat (Triticum aestivum); assay: Test A postemergence, visual plant response rating; settings: for Wheat plant response rating: 0 to 100 scale (0 no effect, 100 complete control)
# Procedure, shortened: as §1
# [16] = test system: barnyardgrass (Echinochloa crus-galli); assay: Test B flooded paddy test, visual plant response rating; settings: 250 g ai/ha, Flood, applied to paddy water, 2-leaf stage, evaluated after 13 to 15 days
# Procedure, shortened: (§2)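 2-leaf plants; pots flooded 3 cm over soil surface; compound dosed straight into the floodwater; depth kept constant; greenhouse 13–15 d; visual rating vs. untreated controls.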
# [17] = test system: ducksalad (Heteranhera limosa); assay: as above; settings: 250 g ai/ha, Flood, applied to paddy water, 2-leaf stage, evaluated after 13 to 15 days
# Procedure, shortened: as §2
# rice (Oryza sativa) = assay: as above; settings: 250 g ai/ha, Flood, applied to paddy water, 2-leaf stage, evaluated after 13 to 15 days
# Procedure, shortened: as §2
# [18] = test system: sedge, umbrella (small-flower umbrella sedge, Cyperus difformis); assay: as above; settings: 250 g ai/ha, Flood, applied to paddy water, 2-leaf stage, evaluated after 13 to 15 days
# Procedure, shortened: as §2
# [19] = 500 g ai/ha, postemergence, 0 is no effect, 100 is complete control
Structure (SMILES),"Ryegrass, Italian plant response rating [1]","Ryegrass, Italian plant response rating (0 to 100 scale) [1]",Barnyardgrass plant response rating [2],Barnyardgrass plant response rating (0 to 100 scale) [2],"Foxtail, Giant plant response rating [3]","Foxtail, Giant plant response rating (0 to 100 scale) [3]",Kochia plant response rating (kochia (Kochia scoparia) [4]),Kochia plant response rating (0 to 100 scale) (kochia (Kochia scoparia) [4]),Pigweed plant response rating [5],Pigweed plant response rating (0 to 100 scale) [5],Ragweed plant response rating [6],Ragweed plant response rating (0 to 100 scale) [6],"Ryegrass, Italian plant response rating (0 to 100 scale) [7, 19]",Barnyardgrass plant response rating (0 to 100 scale) [8],Barnyardgrass plant response rating [8],Blackgrass plant response rating (0 to 100 scale) [9],Blackgrass plant response rating [9],Corn plant response rating (0 to 100 scale) (corn (Zea mays)),Corn plant response rating (corn (Zea mays)),"Foxtail, Giant plant response rating (0 to 100 scale) [10]",further results
CON=C(c1cccc(C(F)(F)F)c1)c1c(O)c(C)nn(C)c1=O [Compound 56],0,40,0,50,0,40,0,60,30,90,70,50,50,10,0,40,30,0,0,0,"Ryegrass, Italian plant response rating ([7]; Postemergence): 20; Foxtail, Giant plant response rating [10]: 0; Galium plant response rating (0 to 100 scale) [11]: 80; Galium plant response rating [11]: 70; Kochia plant response rating (0 to 100 scale) (kochia (Kochia scoparia) [12]): 50; Kochia plant response rating (kochia (Kochia scoparia) [12]): 20; Pigweed plant response rating (0 to 100 scale) [13]: 70; Pigweed plant response rating [13]: 50; Ragweed plant response rating (0 to 100 scale) [14]: 50; Ragweed plant response rating [14]: 10; Wheat plant response rating (0 to 100 scale) [15, 19]: 0; Wheat plant response rating ([15]; Postemergence, 125 g ai/ha): 0; Plant response rating, Barnyardgrass (0 to 100 scale, 0 is no effect, 100 is complete control) [16]: 0; Plant response rating, Ducksalad (0 to 100 scale, 0 is no effect, 100 is complete control) [17]: 30; Plant response rating, Rice (0 to 100 scale, 0 is no effect, 100 is complete control) (rice (Oryza sativa)): 20; Plant response rating, Sedge, Umbrella (0 to 100 scale, 0 is no effect, 100 is complete control) [18]: 15"
CCO/N=C(/c1c(O)c(Cl)nn(C)c1=O)c1cccc2ccccc12 [Compound 147],0,0,50,60,50,80,100,100,60,100,90,100,0,60,20,60,30,30,0,70,"Ryegrass, Italian plant response rating (0 to 100 scale) ([7]; Postemergence, rate not given, approx. 10 days): 0; Foxtail, Giant plant response rating [10]: 30; Galium plant response rating (0 to 100 scale) [11]: 90; Galium plant response rating [11]: 90; Kochia plant response rating (0 to 100 scale) (kochia (Kochia scoparia) [12]): 90; Kochia plant response rating (kochia (Kochia scoparia) [12]): 40; Pigweed plant response rating (0 to 100 scale) [13]: 90; Pigweed plant response rating [13]: 40; Ragweed plant response rating (0 to 100 scale) [14]: 90; Ragweed plant response rating [14]: 100; Wheat plant response rating ([15]; Postemergence, 500 g ai/ha): 0; Wheat plant response rating (0 to 100 scale) ([15]; Postemergence, approx. 10 days): 0; Plant response rating, Barnyardgrass (0 to 100 scale, 0 is no effect, 100 is complete control) [16]: 0; Plant response rating, Ducksalad (0 to 100 scale, 0 is no effect, 100 is complete control) [17]: 0; Plant response rating, Rice (0 to 100 scale, 0 is no effect, 100 is complete control) (rice (Oryza sativa)): 0; Plant response rating, Sedge, Umbrella (0 to 100 scale, 0 is no effect, 100 is complete control) [18]: 0"
Cc1nn(C)c(=O)c(C(=NOCC=CCl)c2ccc(F)c3ccccc23)c1O [Compound 107],70,90,70,90,80,100,0,30,60,80,20,80,90,90,80,80,80,20,0,80,"Ryegrass, Italian plant response rating ([7]; Postemergence): 70; Foxtail, Giant plant response rating [10]: 70; Galium plant response rating (0 to 100 scale) [11]: 90; Galium plant response rating [11]: 70; Kochia plant response rating (0 to 100 scale) (kochia (Kochia scoparia) [12]): 60; Kochia plant response rating (kochia (Kochia scoparia) [12]): 30; Pigweed plant response rating (0 to 100 scale) [13]: 100; Pigweed plant response rating [13]: 80; Ragweed plant response rating (0 to 100 scale) [14]: 90; Ragweed plant response rating [14]: 80; Wheat plant response rating (0 to 100 scale) [15, 19]: 40; Wheat plant response rating ([15]; Postemergence, 125 g ai/ha): 0; Plant response rating, Barnyardgrass (0 to 100 scale, 0 is no effect, 100 is complete control) [16]: 0; Plant response rating, Ducksalad (0 to 100 scale, 0 is no effect, 100 is complete control) [17]: 0; Plant response rating, Rice (0 to 100 scale, 0 is no effect, 100 is complete control) (rice (Oryza sativa)): 0; Plant response rating, Sedge, Umbrella (0 to 100 scale, 0 is no effect, 100 is complete control) [18]: 0"
CON=C(c1c(O)c(C)nn(C)c1=O)c1ccc(Cl)c2ccccc12 [Compound 130],30,50,0,70,30,60,0,0,50,50,20,50,90,30,30,70,50,30,10,70,"Ryegrass, Italian plant response rating ([7]; Postemergence): 30; Foxtail, Giant plant response rating [10]: 30; Galium plant response rating (0 to 100 scale) [11]: 90; Galium plant response rating [11]: 80; Kochia plant response rating (0 to 100 scale) (kochia (Kochia scoparia) [12]): 70; Kochia plant response rating (kochia (Kochia scoparia) [12]): 50; Pigweed plant response rating (0 to 100 scale) [13]: 80; Pigweed plant response rating [13]: 70; Ragweed plant response rating (0 to 100 scale) [14]: 80; Ragweed plant response rating [14]: 60; Wheat plant response rating (0 to 100 scale) [15, 19]: 40; Wheat plant response rating ([15]; Postemergence, 125 g ai/ha): 10; Plant response rating, Barnyardgrass (0 to 100 scale, 0 is no effect, 100 is complete control) [16]: 0; Plant response rating, Ducksalad (0 to 100 scale, 0 is no effect, 100 is complete control) [17]: 0; Plant response rating, Rice (0 to 100 scale, 0 is no effect, 100 is complete control) (rice (Oryza sativa)): 0; Plant response rating, Sedge, Umbrella (0 to 100 scale, 0 is no effect, 100 is complete control) [18]: 35"
